This is an account of results in patent US8470763B2, “Alpha-amino-N-substituted amides, pharmaceutical composition containing them and uses thereof” (Shanghai Institute of Materia Medica Chinese Academy of …, priority 2007, dated 2013).

In data set [1] the test system is human breast cancer cells MDA-MB-435 transplanted on nude mice. Kind of data set: Antineoplasmic activity in vivo, MDA-MB-435 transplanted tumor on nude mice. The following applies: for Body Weight(g) Ultimate / TV (mm^3) d21 / RTV: q3w × 3w; for Body Weight(g) Ultimate: i.v. 4 times then peritoneally 5 times; for RTV: d21.
Procedure: Dosage: among 3 groups, the dosages of L538 were set at 5, 10 and 20 mg/kg as the high, middle and low dosages, respectively, administrating intravenously 3 times a week; while MMC was administrated intravenously at the first day whit a dosage of 5 mg/kg.
Animals: BALB/CA nude mice, male, 40-45 days old, body weight: 18±1 g, provided by Shanghai Institute of Materia Medica, Chinese Academy of Sciences. […] Animal number in each group: 7 in negative control group, and 4 in administration group.
The amount of inoculated cells was 5×10^6. After the transplanted tumor was formed by inoculation, it was used after passed for 3 generations in nude mice.
Experimental procedure: tumor tissue in productive phase was cut into nubs of about 1.5 mm^3. Under sterile conditions, the nubs were inoculated subcutaneously in right axillary fossa of the nude mice. The diameters of the transplanted tumors on nude mice were measured by a vernier caliper. When the tumors grew up to 100-200 mm^3, the animals were divided randomly into groups. Mice in experimental groups were administered intravenously every other day. […] The total administration duration was 3 weeks. For the positive control, MMC, Mice were administered intravenously once at the first day of a week, and the total administration duration was 3 weeks. Mice in control groups were administrated physiologic saline in equivalent amount. The diameter of the tumor and weight of mice were measured twice a week. The equation for calculating the TV (tumor volume) was as follows: TV=½×a×b^2, • wherein, a is length and b is width. RTV (relative tumor volume) was calculated based on the measured results, and the equation thereof was as follows: RTV=Vt/V0 • wherein, V0 is the tumor volume measured when the mice were grouped (i.e. d0), and Vt is the tumor volume at each measurement. The evaluation index for the antitumor activity was the relative tumor proliferation rateT/C (%).
The calculation equation was as follows: T/C(%)=(TRTV/CRTV)×100, • wherein, TRTV is the RTV of therapeutic Group and CRTV is RTV of negative control group.
Data set [2] has as its system MDA-MB-435 (Breast Cancer). In words: SRB assay, MDA-MB-435. The following applies: Homo sapiens, 72 h, read-out: IC50 (μM) (mean ± SD). It is filed as cell-based. The method, then:
Experimental method: The antineoplasmic activities in vitro of the compounds were determined by SRB assay. The detailed procedure was as follows. The cells in the logarithmic growth phase were inoculated on a 96-well microculture plate with a suitable density (100 μl/well), and allowed to attach overnight, followed by addition of the compound at different concentrations to be treated for 72 h. For each concentration, the test was carried out in triplicate wells, and included control wells containing the aqueous medium of normal saline and a blank well containing all medium without cells for zeroing. After cultured overnight, the cells were treated with the compound at different concentrations for 72 h. After the treatment, the culture medium was removed, and the cells were fixed with 10% (wt/vol) trichloroacetic acid (100 μL/well) at 4° C. for 1 h. The cells were then washed with distilled water for 5 times, and died at room temperature, followed by addition of a SRB solution (4 mg/mL, dissolved in 1% glacial acetic acid) at 100 μL/well. The cells were incubated and stained at room temperature for 15 min, then washed with 1% glacial acetic acid for 5 times to remove the uncombined SRB, and died at room temperature. 100 μL of 10 mM Tris solution was added in each well, and the Optical Density (OD) were measured at a wavelength of 560 nm on a VERSMax ELISA Reader (Molecule Devices). The growth inhibition of the compound against tumor cells was calculated according to the following equation: Growth inhibition (%)=(ODcontrol−ODtreated)/ODcontrol×100%.
IC50 (the concentration of the sample compound that is required for 50% inhibition of cell growth) was calculated by using the Logit method based on the measurement, and each test was repeated for 3 times to calculate the mean value and standard deviation.
A general note: In SRB staining, fixed cells bind dye roughly in proportion to their protein.

Data set [3] has as its system lung adenocarcinoma cells A549. In words: MTT assay, A549 cells. It is filed as cell-based. To be noted: Homo sapiens, 72 h. The procedure:
(§1) The adhered MDA-MB-4355 cells in logarithmic growth phase, were digested by 0.05% trypsogen, counted and formulated into a cell suspension with a medium. After counted, the suspension was inoculated on a 96-well plate with 3000 cells and 100 μl medium per well. The inoculated 96-well plate was placed overnight in an incubator at 37 with 5% CO2 to allow the cells to adhere to the wall. On the next day, the administration of the drugs started. Before the administration, into some of the control wells, each was added 20 μl of the MTT solution (5 mg/ml) without removing the medium therein. After incubated for 3 h, the absorption at A550/690 was recorded as the initial cell concentration. For the drug wells, each was added into 100 μl of medium containing 2 μl of compound solution. For the control wells which use DMSO as background control, each was also added into 100 μl of medium containing 2 μl of DMSO. In addition, each experiment was carried out with adriamycin as the positive control. Subsequently, the 96-well plate was incubated in an incubator at 37 with 5% CO2 for 72 h. each compound was tested in triplicate wells (6 μl of compound solution was put into a sterilized eppendorf centrifuge tube, then 300 μl of medium was added and mixed well, and the mixture was distributed into 3 wells respectively), and at six concentrations which form a gradient. 3 days (72 h) later, 40 μl of MTT solution (5 mg/ml) was put into each well directly (without sucking off the medium therein), and the plate was incubated in the incubator for 3 h and then taken out. The liquid in each well was sucked off, and then 100 μl of DMSO was put into each well to dissolve the crystal completely with slight shake. The absorbance of the solution in each well was determined at 550/690 nm on an ELISA Reader as the cell density after treated with the compound. The growth inhibition of compound against breast cancer cells MDA-MB-435S was represented by the cell survival rate, and IC50 was determined from the profile of cell survival rate vs compound concentration. The calculating formula was as follows: cell survival rate=[(cells+compound)A550/690/(cells+compound vector DMSO)A550/690]×100%
(§2) MDA-MB-435S: human breast cancer cells; HCT116: colon cancer cells; A549: lung adenocarcinoma cells; Hela: uterine cervix cancer cells.
(§3) The tests were performed in the same manner as that of experimental example 1, except that for Hela cells, after counted, each well was seeded with 1000 cells and 100 μl of medium on a 96-well plate.

For data set [4], the system named is Hela uterine cervix cancer cells. Kind of data set: MTT assay, Hela cells. It is filed as cell-based. To be noted: Homo sapiens, 72 h, 1000 cells per well. The method, then:
as §1, §2, §3

As usually defined, the IC50 is the concentration needed to halve the response being measured. On to `CO[C@@H](C(=O)N[C@@H](C)C(=O)NCCOC(=O)C12CC3CC(CC(C3)C1)C2)[C@H](O)[C@@H](O)[C@H](O)/C=C/C(C)(C)C` [Compound L538], for which, in data set [1] (5, 10 and 20 mg/kg, 3 weeks), the “growth inhibition of transplanted tumor, conclusion” value is recorded as “can significantly depress the growth”. Moreover, the “T/C (%)” value in data set [1] (L538 5 mg/kg, q3w × 3w (low dosage group), P >0.05) worked out at 64.7%; in data set [1] (L538 10 mg/kg, q3w × 3w (middle dosage group), P <0.05), 47.1%; in data set [1] (L538 20 mg/kg, q3w × 3w (high dosage group), P <0.05), 36.0%. For the same compound, the “Body Weight(g) Ultimate” value amounted to 23.5 g in data set [1] (L538 5 mg/kg, initial 19.3 g); 21.7 g in data set [1] (L538 10 mg/kg, initial 17.7 g); 19.7 g in data set [1] (L538 20 mg/kg, initial 18.5 g). In addition, the “TV (mm^3) d21” value in data set [1] (L538 5 mg/kg, d0 131 ± 59) is 1144 ± 353 mm^3; in data set [1] (L538 10 mg/kg, d0 133 ± 49), 951 ± 619 mm^3; in data set [1] (L538 20 mg/kg, d0 135 ± 37), 735 ± 501 mm^3. The RTV was 9.6 ± 3.5 in data set [1] (L538 5 mg/kg), 6.9 ± 3.6 in data set [1] (L538 10 mg/kg) and 5.3 ± 3.1 in data set [1] (L538 20 mg/kg). The “tail stimulus on intravenous administration” value in data set [1] (after administered intravenously 4 times, every other day) is reported as “too strong tail stimulus to be administered intravenously”. The “increase in body weight” value in data set [1] (high dosage group) is given as “did not have an significant increase in body weight”. For the same compound, in data set [1] (low dosage group), the “growth inhibition of transplanted tumor” value is recorded as “did not be depressed obviously”. Besides, the values for the concentration for half-maximal inhibition (IC50) in data set [2], in data set [3] and in data set [4] were 0.09 ± 0.01 µM, 133 ± 25 nM and 91 ± 19 nM, respectively.
